Measured values published in patent EP3949965A1 (Consejo Superior de Investigaciones Cientificas, priority 2020, dated 2022).

Columns and labels:
Vero-E6 cells = details: African green monkey
in vitro [1] = details: human
in vitro [2] = details: African green monkey

O=c1[nH]c2ccccc2n1CCCN1CCC(n2c(=O)[nH]c3cc(Cl)ccc32)CC1 [Domperidone, domperidone]
HIGHEST NONTOXIC CONCENTRATION (MTT) (Vero-E6 cells): 12.5
CC50 at 72 h (in vitro [1]): 4 µM
CC50 (in vitro [2]): 25 µM
